Experimental findings from ChEMBL document CHEMBL5380860, “Design, Synthesis, and Antitumor Activity of Potent and Selective EGFR L858R/T790M Inhibitors and Identification of a Combination Therapy to Overcome Acquired Resistance in Models of Non-small-cell Lung Cancer” (J Med Chem, 2023) are described below.

Calls of active or inactive are those of the source.

By half-life is commonly meant the time needed for the level to fall by half in the phase considered.

Data set [1] concerns Epidermal growth factor receptor (Homo sapiens), P00533 [L858R,T790M]. The data set can be described thus: Covalent binding affinity to EGFR L858R/T790M mutant (unknown origin) assessed as enzyme-compound complex formation at protein to compound concentration ratio of 1:4 incubated for 1 hr by LC-MS analysis.
In data set [2] the target is Proto-oncogene tyrosine-protein kinase Src (Homo sapiens, UniProt P12931). Nature of the data set: Inhibition of human wild type partial length Src kinase (L240 to L536 residues) expressed in bacterial expression system assessed as residual activity at 1 uM by KINOMEscan analysis.
Chain of Proto-oncogene tyrosine-protein kinase Src (P12931 2-536 limits assumed): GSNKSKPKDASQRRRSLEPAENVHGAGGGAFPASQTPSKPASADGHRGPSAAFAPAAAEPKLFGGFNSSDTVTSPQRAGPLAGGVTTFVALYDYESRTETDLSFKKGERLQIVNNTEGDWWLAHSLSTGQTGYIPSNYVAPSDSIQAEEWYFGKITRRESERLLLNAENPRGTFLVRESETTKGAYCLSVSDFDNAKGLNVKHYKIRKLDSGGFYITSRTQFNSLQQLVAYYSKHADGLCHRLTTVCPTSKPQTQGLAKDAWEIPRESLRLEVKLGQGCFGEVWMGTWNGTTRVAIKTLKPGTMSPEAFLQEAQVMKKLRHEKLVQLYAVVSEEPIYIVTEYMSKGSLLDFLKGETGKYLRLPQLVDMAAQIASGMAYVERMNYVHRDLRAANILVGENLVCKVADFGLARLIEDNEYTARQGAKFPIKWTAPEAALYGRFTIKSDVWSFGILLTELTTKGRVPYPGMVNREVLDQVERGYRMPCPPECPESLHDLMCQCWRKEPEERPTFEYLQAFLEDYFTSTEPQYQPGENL
Data set [3] has as its system Epidermal growth factor receptor (Homo sapiens), P00533 [L858R]. The data set can be described thus: Inhibition of human partial length EGFR (R669 to V1011 residues) L858R mutant expressed in bacterial expression system assessed as residual activity at 1 uM by KINOMEscan analysis.
Data set [4] deals with Epidermal growth factor receptor (Homo sapiens), P00533 [UNDEFINED MUTATION]. Nature of the data set: Inhibition of human EGFR exon del19 mutant assessed as residual activity at 1 uM by KINOMEscan analysis.
Data set [5] concerns Epidermal growth factor receptor (Homo sapiens), P00533 [L858R,T790M]. Nature of the data set: Inhibition of EGFR L858R/T790M mutant in human NCI-H1975 cells assessed as inhibition of EGF-induced EGFR phosphorylation at Tyr1068 residue at 1 uM pretreated with compound for 4 hrs followed by incubation with EGF for 10 mins by western blot analysis. Conditions: time 250.0 min. Type of data set: cell-based. In general terms: In western blotting, separated proteins are transferred to a membrane and probed.

For data set [6], the target named is T1, Epidermal growth factor receptor (Homo sapiens, UniProt P00533). The data set can be described thus: Inhibition of wild type EGFR in human A549 cells assessed as inhibition of EGF-induced Akt phosphorylation at Ser473 residue at 10 uM pretreated with compound for 4 hrs followed by incubation with EGF for 10 mins by western blot analysis. It is filed as toxicity, cell-based. The conditions noted are these: a549, 4.167 h, time 250 min.

The target in data set [7] is T1, Epidermal growth factor receptor. Nature of the data set: Inhibition of wild type EGFR in human A-431 cells assessed as inhibition of EGF-induced ERK1/2 phosphorylation at 0.1 to 10 uM pretreated with compound for 4 hrs followed by incubation with EGF for 10 mins by western blot analysis. It is filed as toxicity, cell-based. Conditions: a-431, 4.167 h, dose 0.1-10 µM, time 250 min.

Data set [8] relates to NCI-H1975. The data set can be described thus: Induction of apoptosis in human NCI-H1975 cells assessed as induction of PARP cleavage pretreated with compound for 4 hrs followed by incubation with EGF for 10 mins by western blot analysis. It is filed as functional, cell-based. Conditions: dose 0.1-10 µM, time 250.0 min.
The subject of data set [9] is A549. Nature of the data set: Induction of apoptosis in human A549 cells assessed as induction of caspase-3 cleavage at 0.1 to 10 uM pretreated with compound for 4 hrs followed by incubation with EGF for 10 mins by western blot analysis. The conditions noted are these: a549, 4.167 h, dose 0.1-10 µM, time 250 min. It is filed as toxicity, cell-based.
Data set [10] deals with A-431. The data set can be described thus: Induction of apoptosis in human A-431 cells assessed as induction of PARP cleavage at 0.1 to 10 uM pretreated with compound for 4 hrs followed by incubation with EGF for 10 mins by western blot analysis. It is filed as toxicity, cell-based. Conditions: a-431, 4.167 h, dose 0.1-10 µM, time 250 min.
The test system of a further data set is HCC827. Nature of the data set: Induction of apoptosis in human HCC827 cells assessed as increase in caspase-3/7 activity at 0.1 to 10 uM incubated for 24 hrs by Caspase-Glo reagent based luminescence analysis. Type of data set: functional, cell-based. Conditions: dose 0.1-10 µM.
In data set [11] the test system is A549. Nature of the data set: Induction of apoptosis in human A549 cells assessed as increase in caspase-3/7 activity at 0.1 to 10 uM incubated for 24 hrs by Caspase-Glo reagent based luminescence analysis. It is filed as toxicity, cell-based. The conditions noted are these: a549, 24 h, dose 0.1-10 µM.
Data set [12] deals with A-431. The data set can be described thus: Induction of apoptosis in human A-431 cells assessed as increase in caspase-3/7 activity at 0.1 to 10 uM incubated for 24 hrs by Caspase-Glo reagent based luminescence analysis. It is filed as toxicity, cell-based. The conditions noted are these: a-431, 24 h, dose 0.1-10 µM.
Data set [13] concerns A-431. Nature of the data set: Inhibition of clonogenicity in human A-431 cells assessed as inhibition of colony formation at 0.1 to 10 uM incubated for 14 days by crystal violet staining based analysis. The conditions noted are these: a-431, 336 h, dose 0.1-10 µM, time 14 day. Type of data set: toxicity, cell-based.
Data set [14] concerns NCI-H1975. Nature of the data set: Inhibition of cell migration in human NCI-H1975 cells at 0.1 uM incubated for 48 hrs by scratch wound healing assay. It is filed as functional, cell-based.
A short description of data set [15]: GSH reactivity in PBS buffer assessed as half life by HPLC analysis. It is filed as ADME. Conditions: PBS buffer with GSH.
Data set [16] can be described thus: Apparent volume of distribution in Sprague-Dawley rat at 1 mg/kg, iv by LC-MS analysis. It is filed as ADME, organism-based. The conditions noted are these: in vivo, read-out: Vz.
Data set [17] concerns Mus musculus. The data set can be described thus: In vivo inhibition of EGFR L858R/T790M mutant in NCI-H1975 cells xenografted BALB/c mouse assessed as inhibition of EGFR phosphorylation at Tyr1068 residue at 5 to 20 mg/kg/day, ip in tumor by immunohistochemistry. Type of data set: functional, organism-based. Conditions: dose 5-20 mg/kg/day.
Data set [18] deals with Mus musculus. Nature of the data set: In vivo inhibition of EGFR L858R/T790M mutant in NCI-H1975 cells xenografted BALB/c mouse assessed as inhibition of AKT phosphorylation at Ser473 residue at 5 to 20 mg/kg/day, ip in tumor by immunohistochemistry. It is filed as functional, organism-based. Conditions: dose 5-20 mg/kg/day.
For data set [19], the system named is NCI-H1975. Nature of the data set: Antiproliferative activity against N-(3-((6-Fluoro-2-((4-(4-methylpiperazin-1-yl)phenyl)amino)quinazolin-4-yl)amino)phenyl)acrylamide-resistant human NCI-H1975 cells assessed as reduction in cell viability at compound:AIM100 concentration ratio of 3:1 to 1:3 measured after 72 hrs in presence of ACK1 inhibitor, AIM100 by MTT assay. It is filed as functional, cell-based. On the technique in general: Formazan colour is commonly taken as a measure of viable cells.

Data set [20] has as its system NCI-H1975. The data set can be described thus: Antitumor activity against N-(3-((6-Fluoro-2-((4-(4-methylpiperazin-1-yl)phenyl)amino)quinazolin-4-yl)amino)phenyl)acrylamide-resistant human NCI-H1975 cells xenografted in BALB/c mouse assessed as inhibition of tumor growth at 20 mg/kg/day, ip. Type of data set: functional, organism-based. On the technique in general: Xenograft models place foreign cells or tissue in a host animal.

Data set [21] in a line: Toxicity in BALB/c mouse xenografted with N-(3-((6-Fluoro-2-((4-(4-methylpiperazin-1-yl)phenyl)amino)quinazolin-4-yl)amino)phenyl)acrylamide-resistant human NCI-H1975 cells assessed as effect on body weight at 20 mg/kg/day, ip in presence of ACK1 inhibitor, dasatinib. It is filed as organism-based. The conditions noted are these: in vivo.
Data set [22] is described as follows: Toxicity in BALB/c mouse xenografted with N-(3-((6-Fluoro-2-((4-(4-methylpiperazin-1-yl)phenyl)amino)quinazolin-4-yl)amino)phenyl)acrylamide-resistant human NCI-H1975 cells assessed as changes in lung morphological changes at 20 mg/kg/day, ip in presence of ACK1 inhibitor, dasatinib by hematoxylin-eosin staining based analysis. Conditions: in vivo. It is filed as organism-based.

Data set [23] has as its system NCI-H1975. Nature of the data set: Antitumor activity against N-(3-((6-Fluoro-2-((4-(4-methylpiperazin-1-yl)phenyl)amino)quinazolin-4-yl)amino)phenyl)acrylamide-resistant human NCI-H1975 cells xenografted in BALB/c mouse assessed as […] in TUNEL-positive cells in tumor at 20 mg/kg/day, ip in presence of ACK1 inhibitor, dasatinib by TUNEL assay. Type of data set: functional, organism-based.

The subject of data set [24] is NCI-H1975. Nature of the data set: Antitumor activity against human NCI-H1975 cells xenografted in BALB/c mouse assessed as tumor regression at 10 mg/kg/day, po. It is filed as functional, organism-based.
The species entered for data set [25] is Mus musculus. Conditions: BALB/c, dose 10.0 mg/kg/day, route po.

Consider `C=CC(=O)Nc1cccc(Nc2nc(Nc3ccc(N4CCN(C)CC4)cc3)nc3ccc(F)cc23)c1`, for which the result (in data set [1]; in the data set with HCC827; in the data set with NCI-H1975 [19]; in the data set with NCI-H1975 [23]) was Active. Moreover, the Activity in data set [2] is 20%; in [3], 1%; in data set [4], 0%; in the data set with NCI-H1975 [8], “Dose-Dependent Effect”; in the data set with A549 [9], “Non-Toxic”; with A-431 [10], “Non-Toxic”. Besides, the Activity entry (in the data set with A549 [11]; with A-431 [12]; in the data set on A-431 [13]; in data set [21]; in [22]) was “Non-Toxic” each time. Further, the inhibition result (in [5]; in the data set with NCI-H1975 [14]; with Mus musculus [17]; in the data set on Mus musculus [18]) was “Active” each time. In addition, the “inhibition (INH)” value in data set [6] and in data set [7] was “Not Active” throughout. Moreover, the half-life in data set [15] was 72.9 h. For the same compound, the Vd in [16] came out at 2.52 L/kg. For the same compound, the outcome in the data set on NCI-H1975 [20] was inactive.

As for `C=CC(=O)Nc1cc(Nc2nccc(-c3cn(C)c4ccccc34)n2)c(OC)cc1N(C)CCN(C)C` [OSIMERTINIB], the outcome in the data set with NCI-H1975 [24] was Active. Further, the inhibition result in the data set filed under Mus musculus [25] was “Active”.
